According to US12577213B2 (NINGBO COMBIREG PHARMACEUTICAL TECHNOLOGY CO., LTD., priority 2020, dated 2026):
Where two headings read alike, the source gives them in different places.

What was measured:
[1] = tested on: PC-3 (prostate cancer); test: NCI method SRB growth inhibition, PC-3; assay type: cell-based; settings: Homo sapiens; PC-3, treated 48 hours, SRB stain
Outline: (§1)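 Following the NCI method, one plate is fixed immediately before compound addition, test wells are fixed after 48 h treatment, and vehicle wells after 48 h in medium. All are stained with sulforhodamine B and measured at 515 nm, and GI50, TGI and LC50 are derived from the growth-rate curves.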

[2] = tested on: LOX-IMVI (melanoma); test: NCI method SRB growth inhibition, LOX-IMVI; assay type: cell-based; settings: Homo sapiens, treated 48 hours, SRB stain
Outline: as §1

[3] = Liver microsomes stability; assay type: in vitro ADME, human; settings: for half-life at 1 μM: human, human liver microsomes
Outline: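 Compound at 1 μM final incubated with 1 mg/mL human liver microsomes and 1 mM NADPH (no-NADPH control), sampled at 0, 5, 15, 30, 60 min. Remaining parent quantified by LC-MS/MS; T1/2 = 0.693/k.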

[4] = tested on: HCT116 (colon cancer); test: NCI method SRB growth inhibition, HCT116; assay type: cell-based; settings: Homo sapiens, HCT-116; HCT116, treated 48 hours, SRB stain
Outline: as §1

[5] = tested on: SF295 (central nervous system tumor); test: NCI method SRB growth inhibition, SF295; assay type: cell-based; settings: Homo sapiens, SF-295; SF295, treated 48 hours, SRB stain
Outline: as §1

[6] = Metabolic stability in vivo (plasma half-life after IV); settings: mouse, plasma, iv; intravenously at 1 mg/kg, male BALB/c nude mice; read-out: T½ of (IV in nude mice) (converted)
Procedure: The intravenous injection group of the embodiment compound was prepared with the mixed solvent of DMA:PEG400:30% SBECD=5:25:70 to form a 0.2 mg/mL of solution, and administered intravenously at 1 mg/kg of weight; and the oral preparation group was prepared with 0.5% MC to form a 1 mg/mL of solution, and administered by oral gavage at 10 mg/kg weight.
• Male BALB/c nude mice, 4-5 weeks old, purchased from Shanghai SLAC. 3. Experiment Method: 3.1 Instruments: • Liquid chromatography system: Shimadzu liquid chromatography system Shimadzu LC-30AD • MS/MS system: Applied Biosystems API5500 • Data collection: Analyst Software 1.5.2 3.2 Chromatographic Conditions Chromatographic Column • Analytical column: Kinetex 2.6u C18 100 A column (3.0 mm×30 mm) • Mobile phase: A: 10 mM NH4OAc (0.1% FA); B: Acetonitrile with 0.1% […] • Flow rate: 1.0 mL/min
Ion source was an electron spray ionization (ESI source) with negative ion detection; spray voltage source was 5500 V; ion source gas 1 (N2) was 50 psi; ion source gas 2 (N2) was 50 psi; air curtain gas (N2) was 30 psi. Scanning mode was multiple reaction monitoring (MRM); scanning time was 80 ms; collision gas pressure was 10 psi;
Grouping experiment, with three animals in each group, starting from now on, administration was started according to the weight of the animals. Blood was collected according to 5 min, 15 min, 30 min, 1 h, 2 h, 4 h, 8 h and 24 h after administration.
To 25.0 μL of plasma, 25.0 μL of internal standard solution (Tolbutamide (250 ng/mL) in acetonitrile), 25.0 μL of acetonitrile and 100 μL of acetonitrile were added, and the mixture was vortexed for 1 min, and centrifuged for 5 min (14000 rpm). 120 μL of the resulting supernatant was added with 80.0 μL of water (containing 1% formic acid) and mixed well, then analyzed by LC/MS/MS.

[7] = tested on: A549 (non-small cell lung cancer); test: NCI method SRB growth inhibition, A549; assay type: cell-based; settings: Homo sapiens; A549, treated 48 hours, SRB stain
Outline: as §1

[8] = tested on: OVCAR-3 (ovarian cancer); test: NCI method SRB growth inhibition, OVCAR-3; assay type: cell-based; settings: Homo sapiens; OVCAR-3, treated 48 hours, SRB stain
Outline: as §1

[9] = tested on: HS 578T (breast cancer); test: NCI method SRB growth inhibition, HS 578T; assay type: cell-based; settings: Homo sapiens, HS578T, treated 48 hours, SRB stain
Outline: as §1

[10] = tested on: K562 (leukemia); test: NCI method SRB growth inhibition, K562; assay type: cell-based; settings: Homo sapiens; K562, treated 48 hours, SRB stain
Outline: as §1

[11] = tested on: 786-0 (renal cancer); test: NCI method SRB growth inhibition, 786-0; assay type: cell-based; settings: Homo sapiens; 786-0, treated 48 hours, SRB stain
Outline: as §1

[12] = 1 μM compound, 1 mg/mL human liver microsomes, 1 mM NADPH
[13] = 1 μM compound, 1 mg/mL human liver microsomes, 1 mM NADPH, read-out: T½ of HLM
[14] = as repeated in Table 4, read-out: T½ of HLM (in vitro)

Row | microsomal CLint at 1 μM [3, 12] [µL/min/mg] | half-life at 1 μM [3, 13] [min] | half-life at 1 μM [3, 14] [min] | half-life [6] [min] | Compound | GI50 [1] [nM] | GI50 [2] [nM] | GI50 [4] [nM] | GI50 [5] [nM] | GI50 [7] [nM] | GI50 [8] [nM] | GI50 [9] [nM] | GI50 [10] [nM] | GI50 [11] [nM]
1 | 16.5 | 42 | 42 | 53.1 | [2H]C([2H])([2H])Oc1cc(C(=O)Nc2cc3c(cc2Oc2cc(C)cc(C)c2)C(=O)N[C@@H](CC(=O)N(CC)CC)C(=O)N3)c(Cl)c(OC([2H])([2H])[2H])c1OC([2H])([2H])[2H] [Compound 1, (S)-2-chloro-N-[3-[2-(diethylamino)-2-oxoethyl]-7-(3,5-dimethylphenoxy)-2,5-dioxo-2,3,4,5-tetrahydro-1H-benzo[e][1,4]diazepin-8-yl]-3,4,5-tris(trideuteromethoxy)benzamide] | 5.5 | < 5 | 5.4 | 12.3 | 15 | 5.5 | 31.6 | < 5 | 8.1
2 | 9.5 | 73 | 73 | 78.6 | [2H]C([2H])([2H])Oc1cc(C(=O)Nc2cc3c(cc2Oc2cc(C)cc(C)c2)C(=O)N[C@@H](CC(=O)N(C([2H])([2H])C([2H])([2H])[2H])C([2H])([2H])C([2H])([2H])[2H])C(=O)N3)c(Cl)c(OC([2H])([2H])[2H])c1OC([2H])([2H])[2H] [Compound 6, (S)-2-chloro-N-[3-[2-[bis(pentadeuteroethyl)amino]-2-oxoethyl]-7-(3,5-dimethylphenoxy)-2,5-dioxo-2,3,4,5-tetrahydro-1H-benzo[e][1,4]diazepin-8-yl]-3,4,5-tris(trideuteromethoxy)benzamide] | 10.3 | < 5 | < 5 | 13.1 | 11.7 | 11.9 | 20.5 | < 5 | 16.9
3 | 13.7 | 50.6 | 50.6 | 38 | [2H]C([2H])([2H])C([2H])([2H])N(C(=O)C[C@@H]1NC(=O)c2cc(Oc3cc(C)cc(C)c3)c(NC(=O)c3cc(OC)c(OC)c(OC)c3Cl)cc2NC1=O)C([2H])([2H])C([2H])([2H])[2H] [Compound 8, (S)-2-chloro-N-[3-[2-[bis(pentadeuteroethyl)amino]-2-oxoethyl]-7-(3,5-dimethylphenoxy)-2,5-dioxo-2,3,4,5-tetrahydro-1H-benzo[e][1,4]diazepin-8-yl]-3,4,5-trimethoxybenzamide] | 9.7 | < 5 | < 5 | 10.3 | 15.3 | 5 | 13.3 | < 5 | 13.9
4 | 30.7 | 22.6 | 22.6 | 34 | [2H]C([2H])([2H])C([2H])([2H])N(C(=O)C[C@H]1C(=O)Nc2cc(NC(=O)c3cc(OC)c(OC)c(OC)c3Cl)c(Oc3cc(C)cc(C)c3)cc2C(=O)N1C)C([2H])([2H])C([2H])([2H])[2H] [Compound 12, (S)-2-chloro-N-[3-[2-[bis(pentadeuteroethyl)amino]-2-oxoethyl]-7-(3,5-dimethylphenoxy)-4-methyl-2,5-dioxo-2,3,4,5-tetrahydro-1H-benzo[e][1,4]diazepin-8-yl]-3,4,5-trimethoxybenzamide] | 5.4 | < 5 | < 5 | 10.8 | < 5 | 12.6 | 13.3 | < 5 | 9.9
